Reference: PubChem BioAssay (NCI)
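In this assay, cells in 96-well plates receive the compound at five concentrations for 48 hours. Endpoints are linearly interpolated between the surrounding concentrations. TGI is the concentration that stops growth completely.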

Key:
Experiment in all cases: DTP human tumour cell line panel, 48 h
A549 NSCLC = tested on: A549 NSCLC
ACHN renal = tested on: ACHN renal
MDA-MB-231 breast = tested on: MDA-MB-231 breast
UACC-257 melanoma = tested on: UACC-257 melanoma
HCT-15 colon = tested on: HCT-15 colon
UO-31 renal = tested on: UO-31 renal
SF-295 CNS = tested on: SF-295 CNS
SF-539 CNS = tested on: SF-539 CNS
KM12 colon = tested on: KM12 colon
SK-MEL-28 melanoma = tested on: SK-MEL-28 melanoma
MDA-MB-435 = tested on: MDA-MB-435
U251 CNS = tested on: U251 CNS
OVCAR-3 ovarian = tested on: OVCAR-3 ovarian
HT29 colon = tested on: HT29 colon
CCRF-CEM leukemia = tested on: CCRF-CEM leukemia
SNB-19 CNS = tested on: SNB-19 CNS
OVCAR-4 ovarian = tested on: OVCAR-4 ovarian
T-47D breast = tested on: T-47D breast
SK-MEL-2 melanoma = tested on: SK-MEL-2 melanoma
HL-60(TB) leukemia = tested on: HL-60(TB) leukemia
HOP-92 NSCLC = tested on: HOP-92 NSCLC
CAKI-1 renal = tested on: CAKI-1 renal
K-562 leukemia = tested on: K-562 leukemia
COLO 205 colon = tested on: COLO 205 colon
DU-145 prostate = tested on: DU-145 prostate
OVCAR-5 ovarian = tested on: OVCAR-5 ovarian
NCI-H23 lung = tested on: NCI-H23 lung
SR leukemia = tested on: SR leukemia
HCC-2998 colon = tested on: HCC-2998 colon
HCT-116 colon = tested on: HCT-116 colon
MOLT-4 leukemia = tested on: MOLT-4 leukemia
MDA-N = tested on: MDA-N
RPMI-8226 leukemia = tested on: RPMI-8226 leukemia
M14 melanoma = tested on: M14 melanoma
RXF 393 renal = tested on: RXF 393 renal
786-0 renal = tested on: 786-0 renal
BT-549 breast = tested on: BT-549 breast
NCI-H460 lung = tested on: NCI-H460 lung
SK-MEL-5 melanoma = tested on: SK-MEL-5 melanoma
PC-3 prostate = tested on: PC-3 prostate
SW-620 colon = tested on: SW-620 colon
LOX IMVI melanoma = tested on: LOX IMVI melanoma
HOP-62 NSCLC = tested on: HOP-62 NSCLC
MALME-3M melanoma = tested on: MALME-3M melanoma
MCF7 breast = tested on: MCF7 breast
SK-OV-3 ovarian = tested on: SK-OV-3 ovarian
NCI/ADR-RES ovarian = tested on: NCI/ADR-RES ovarian
SN12C renal = tested on: SN12C renal
HS 578T breast = tested on: HS 578T breast
TK-10 renal = tested on: TK-10 renal
SNB-75 CNS = tested on: SNB-75 CNS
UACC-62 melanoma = tested on: UACC-62 melanoma
IGROV1 ovarian = tested on: IGROV1 ovarian
SF-268 CNS = tested on: SF-268 CNS
NCI-H522 lung = tested on: NCI-H522 lung
A498 renal = tested on: A498 renal
EKVX NSCLC = tested on: EKVX NSCLC
OVCAR-8 ovarian = tested on: OVCAR-8 ovarian
NCI-H226 lung = tested on: NCI-H226 lung

CC(=O)OCC1OC(n2c(C)c(N=Nc3ccc(Cl)cc3)c(C)c(C#N)c2=S)C(OC(C)=O)C(OC(C)=O)C1OC(C)=O (configuration not stated)
TGI (A549 NSCLC): > 100 µM | TGI (ACHN renal): > 100 µM | TGI (MDA-MB-231 breast): > 100 µM | TGI (UACC-257 melanoma): > 100 µM | TGI (HCT-15 colon): > 100 µM | TGI (UO-31 renal): > 100 µM | TGI (SF-295 CNS): 76.5 µM | TGI (SF-539 CNS): > 100 µM | TGI (KM12 colon): > 100 µM | TGI (SK-MEL-28 melanoma): > 100 µM | TGI (MDA-MB-435): > 100 µM | TGI (U251 CNS): 98 µM | TGI (OVCAR-3 ovarian): > 100 µM | TGI (HT29 colon): > 100 µM | TGI (CCRF-CEM leukemia): > 100 µM | TGI (SNB-19 CNS): > 100 µM | TGI (OVCAR-4 ovarian): > 100 µM | TGI (T-47D breast): > 100 µM | TGI (SK-MEL-2 melanoma): 92.1 µM | TGI (HL-60(TB) leukemia): > 100 µM | TGI (HOP-92 NSCLC): 20.2 µM | TGI (CAKI-1 renal): > 100 µM | TGI (K-562 leukemia): > 100 µM | TGI (COLO 205 colon): > 100 µM | TGI (DU-145 prostate): > 100 µM | TGI (OVCAR-5 ovarian): > 100 µM | TGI (NCI-H23 lung): > 100 µM | TGI (SR leukemia): > 100 µM | TGI (HCC-2998 colon): > 100 µM | TGI (HCT-116 colon): > 100 µM | TGI (MOLT-4 leukemia): > 100 µM | TGI (MDA-N): > 100 µM | TGI (RPMI-8226 leukemia): > 100 µM | TGI (M14 melanoma): > 100 µM | TGI (RXF 393 renal): 40.7 µM | TGI (786-0 renal): 42.4 µM | TGI (BT-549 breast): 52.3 µM | TGI (NCI-H460 lung): > 100 µM | TGI (SK-MEL-5 melanoma): > 100 µM | TGI (PC-3 prostate): > 100 µM | TGI (SW-620 colon): > 100 µM | TGI (LOX IMVI melanoma): > 100 µM | TGI (HOP-62 NSCLC): 51.7 µM | TGI (MALME-3M melanoma): > 100 µM | TGI (MCF7 breast): > 100 µM | TGI (SK-OV-3 ovarian): > 100 µM | TGI (NCI/ADR-RES ovarian): > 100 µM | TGI (SN12C renal): > 100 µM | TGI (HS 578T breast): 68 µM | TGI (TK-10 renal): > 100 µM | TGI (SNB-75 CNS): 49.1 µM | TGI (UACC-62 melanoma): > 100 µM | TGI (IGROV1 ovarian): > 100 µM | TGI (SF-268 CNS): > 100 µM

Cc1ccc2occ/c(=N\Nc3ccccc3)c2c1
TGI (A549 NSCLC): > 100 µM | TGI (ACHN renal): > 100 µM | TGI (NCI-H522 lung): > 100 µM | TGI (MDA-MB-231 breast): > 100 µM | TGI (UACC-257 melanoma): > 100 µM | TGI (HCT-15 colon): > 100 µM | TGI (UO-31 renal): > 100 µM | TGI (SF-295 CNS): > 100 µM | TGI (SF-539 CNS): > 100 µM | TGI (KM12 colon): 78.5 µM | TGI (SK-MEL-28 melanoma): > 100 µM | TGI (MDA-MB-435): > 100 µM | TGI (U251 CNS): > 100 µM | TGI (OVCAR-3 ovarian): > 100 µM | TGI (HT29 colon): > 100 µM | TGI (CCRF-CEM leukemia): > 100 µM | TGI (SNB-19 CNS): > 100 µM | TGI (OVCAR-4 ovarian): > 100 µM | TGI (T-47D breast): 30.5 µM | TGI (SK-MEL-2 melanoma): > 100 µM | TGI (HL-60(TB) leukemia): > 100 µM | TGI (HOP-92 NSCLC): 97.4 µM | TGI (CAKI-1 renal): > 100 µM | TGI (K-562 leukemia): > 100 µM | TGI (A498 renal): > 100 µM | TGI (COLO 205 colon): > 100 µM | TGI (DU-145 prostate): > 100 µM | TGI (OVCAR-5 ovarian): > 100 µM | TGI (NCI-H23 lung): > 100 µM | TGI (SR leukemia): > 100 µM | TGI (HCC-2998 colon): > 100 µM | TGI (HCT-116 colon): > 100 µM | TGI (EKVX NSCLC): 98 µM | TGI (MDA-N): > 100 µM | TGI (RPMI-8226 leukemia): > 100 µM | TGI (M14 melanoma): > 100 µM | TGI (RXF 393 renal): 58.9 µM | TGI (786-0 renal): > 100 µM | TGI (BT-549 breast): > 100 µM | TGI (NCI-H460 lung): > 100 µM | TGI (SK-MEL-5 melanoma): > 100 µM | TGI (PC-3 prostate): > 100 µM | TGI (OVCAR-8 ovarian): > 100 µM | TGI (SW-620 colon): > 100 µM | TGI (LOX IMVI melanoma): > 100 µM | TGI (HOP-62 NSCLC): > 100 µM | TGI (NCI-H226 lung): > 100 µM | TGI (MALME-3M melanoma): > 100 µM | TGI (MCF7 breast): > 100 µM | TGI (SK-OV-3 ovarian): > 100 µM | TGI (NCI/ADR-RES ovarian): > 100 µM | TGI (SN12C renal): > 100 µM | TGI (HS 578T breast): > 100 µM | TGI (TK-10 renal): > 100 µM | TGI (SNB-75 CNS): 63.2 µM | TGI (UACC-62 melanoma): > 100 µM | TGI (IGROV1 ovarian): > 100 µM | TGI (SF-268 CNS): > 100 µM
